Measured values published in patent US20080242663A1, “NOVEL PYRIMIDINE DERIVATIVES 698” (ASTRAZENECA AB, priority 2007, published 2008).

System: Human Colorectal cancer cells (HT29)
Experiment: In vivo tumour explant model
Design: species or system nude male mice (nu/nu:Alpk)
Details: HT29 tumours in nude mice, 100 mg/kg b.i.d. orally, 16 consecutive days
Description: Human Colorectal cancer cells (HT29 5×10^6 (ATCC HTB-38)) were implanted subcutaneously on to the left flank of nude male mice (nu/nu:Alpk). Actively growing tumours approx 0.2-0.3 cm^3 were selected and randomised. […] Tumours were measured twice weekly and volumes (cm^3) calculated (π/6×(length×width×width)/1000). On the final day of the dosing the tumours were measured, percent growth inhibition was then calculated compared to the control ((([…]-1))*100), where GMDV is the geometric delta volume of either treated (T) or control (C), and a T-Test was performed to establish significance.

With Cc1ccc(CO)cc1N(C)c1ccnc(Nc2cc(N3CCOCC3)cc(N3CCOCC3)c2)n1 [[3-[[2-[(3,5-dimorpholin-4-ylphenyl)amino]pyrimidin-4-yl]-methyl-amino]-4-methyl-phenyl]methanol] as the compound, how does the tumour volume read?
The tumour volume was “reducing tumour volume”.
